Read-outs that look alike come from different tables or passages of the source.
Legend:
[1] = biological target: T1, Rat Striatal Nicotinic Receptors ([^3H]NIC binding sites; α4β2) (Rattus norvegicus, UniProt P09483+P12390); assay: Inhibition of [^3H]nicotine binding to rat brain membranes
T1 construct: Whole brain, excluding cortex and cerebellum, was homogenized in 20 vol of ice-cold buffer; from tissue; host or cells: rat brain membranes (whole brain excluding cortex and cerebellum)
Protocol: (§1) Whole brain, excluding cortex and cerebellum, was homogenized in 20 vol of ice-cold buffer, containing (in mM): 2 HEPES, 11.8 NaCl, 0.48 KCl, 0.25 CaCl2 and 0.12 MgSO4, pH 7.5. Homogenate was centrifuged (25,000 g, 15 min, 4° C.). Pellets were resuspended in 20 vol buffer and incubated at 37° C., for 10 min, cooled to 4° C. and centrifuged (25,000 g, 15 min, 4° C.). Pellets were resuspended and centrifuged using the same conditions. Final pellets were stored in assay buffer, containing (in mM): 20 HEPES, 118 NaCl, 4.8 KCl, 2.5 CaCl2, and 1.2 MgSO4, pH 7.5 at −70° C. Upon use, final pellets were resuspended in ˜20 vol assay buffer. Samples (250 μl) contained 100-140 μg of membrane protein, 3 nM [^3H]nicotine or 3 nM [^3H]methyllycaconitine, and analog (100 nM) in assay buffer containing 50 mM Tris. Control was in the absence of analog. In [^3H]nicotine and [^3H]methyllycaconitine binding assays, nonspecific binding was determined in the presence of 10 μM cytisine and 10 μM nicotine, respectively. Incubations proceeded for 60 min at room temperature using 96-well plates and were terminated by harvesting on Unifilter-96 GF/B filter plates presoaked in 0.5% polyethylenimine, using a Packard FilterMate harvester. After washing 5 times with 350 μl ice-cold assay buffer, filter plates were dried (60 min, […]), bottom-sealed, and filled with Packard's MicroScint 20 cocktail (40 μl/well). After 60 min, filter plates were top-sealed, and radioactivity determined using a Packard TopCount. Protein concentrations were determined using the Bradford dye-binding procedure bovine serum albumin as the standard.
(§2) […] Specific binding in the [^3H]NIC binding assay is calculated as the difference between the total binding of 3 nM [^3H]NIC and nonspecific binding in the presence of 10 μM cytisine. Specific binding for the [^3H]MLA binding assay is calculated as the difference between the total binding of 3 nM [^3H]MLA to the receptors alone and its nonspecific binding in the presence of 10 μM nicotine. Analog-induced inhibition of nicotine-evoked [^3H]DA release is calculated as a percent of that in the absence of the bis-quaternary ammonium analog.

[2] = tested on: Nicotine-evoked [^3H]Dopamine Release from Superfused Rat Striatal Slices; assay: Inhibition of nicotine-evoked [^3H]dopamine overflow from superfused rat striatal slices; type: cell-based; conditions: nicotine 10 μM; for inhibition at 0.1 µM: analog 100 nM, superfused rat striatal slices, read-out: Inhibition Nicotine-evoked [^3H]DA release (% inhibition at 100 nM)
Protocol: The [^3H]dopamine overflow assay using superfused rat striatal slices preloaded with [^3H]dopamine was used to determine the ability of a probe concentration (100 nM) of each bis-quaternary ammonium analog to inhibited nicotine-evoked [^3H]dopamine overflow. Briefly, coronal slices of rat striata (500 μm, 6-8 mg) were obtained using a Mcllwain tissue chopper. Slices were incubated for 30 min in Krebs' buffer (in mM: 118 NaCl, 4.7 KCl, 1.2 MgCl2, 1.0 NaH2PO4, 1.3 CaCl2, 11.1 α-D-glucose, 25 NaHCO3, 0.11 L-ascorbic acid and 0.004 ethylenediaminetetraacetic acid (EDTA), pH 7.4, saturated with 95% O2/5% CO2) at 34° C. in a metabolic shaker. Slices were then incubated for an additional 30 min in fresh buffer containing 0.1 μM [^3H]dopamine. After rinsing, each slice was transferred to each one of 20 superfusion chambers, maintained at 34° C. and superfused (0.6 ml/min) with oxygenated Krebs' buffer in a Brandel Suprafusion 2500 (Biomedical Research and Development Laboratories, Inc., Gaithersburg, Md.). The buffer contained both nomifensine (10 μM), a dopamine uptake blocker, and pargyline (10 μM), a monoamine oxidase inhibitor, ensuring that [^3H]overflow primarily represented [^3H]dopamine, rather than [^3H]metabolites. Following superfusion for 60 min, two 4-min samples (2.4 ml/sample) were collected to determine basal [^3H]outflow. After collection of the second basal sample, slices from an individual rat were superfused for 40 min in the absence (0 nM; control) or presence of each bis-quaternary ammonium analog (100 nM) to determine the intrinsic activity of the analog, i.e., ability of the analog to evoke [^3H]overflow. Following 40 min of superfusion in the absence or presence of analog, nicotine (10 μM) was added to the superfusion buffer and samples were collected for an additional 40 min to determine the ability of the analog to inhibit nicotine-evoked [^3H]dopamine overflow. At least one striatal slice in each experiment was superfused for 40 min in the absence of analog, followed by superfusion with 10 μM nicotine to determine nicotine-evoked [^3H]dopamine overflow in the absence of analog (nicotine control). After collection of the superfusate samples, the slices were retrieved from the chambers and solubilized using 1 ml of TS-2 tissue solubilizer. Scintillation cocktail (4 ml) was added to the superfusate samples. The pH and volume of the solubilized tissue samples were adjusted to that of the superfusate samples. Radioactivity in the superfusate and tissue samples was determined by liquid scintillation spectroscopy (Packard model B 1600 TR Scintillation Counter, Downer's Grove, Ill.).
For individual analogs, a complete concentration response was determined using the following methodology. Rat striatal slices (500 μm thickness, 6-8 mg wet weight) were incubated for 30 minutes in Krebs buffer (118 mM NaCl, 4.7 mM KCl, 1.2 mM MgCl2, 1.0 mM NaH2PO4, 1.3 mM CaCl2, 11.1 mM glucose, 25 mM NaHCO3, 0.11 mM L-ascorbic acid, and 0.004 mM disodium EDTA; pH 7.4, and saturated with 95% O2/5% CO2) in a metabolic shaker at 34° C. Slices were rinsed with 15 mL of fresh buffer and incubated for an additional 30 minutes in fresh buffer containing 0.1 μM [^3H]dopamine (DA; 6 slices/3 mL). Subsequently, slices were rinsed with 15 mL of fresh buffer and transferred to a glass superfusion chamber. Slices were superfused (1.0 mL/min) for 60 minutes with Krebs buffer containing nomifensine (10 μM) and pargyline (10 μM) and maintained at 34° C., pH 7.4, with continual aeration (95% O2/5% CO2). Three 5-minute samples (5 mL each) were collected to determine basal outflow of [^3H]DA. The bis-quaternary analogs were added to the superfusion buffer after the collection of the third sample and remained in the buffer until 12 consecutive five minute samples were collected. Subsequently, S-(−)-nicotine (10 μM) was added to the buffer and an additional 12 consecutive five minute samples were collected. […]

[3] = biological target: T2, Rat Striatal Nicotinic Receptors ([^3H]MLA binding sites; α7) (Rattus norvegicus, UniProt Q05941); assay: Inhibition of [^3H]methyllycaconitine binding to rat brain membranes
T2 construct: Whole brain, excluding cortex and cerebellum, was homogenized in 20 vol of ice-cold buffer; from tissue; host or cells: rat brain membranes (whole brain excluding cortex and cerebellum)
Protocol: as §1, §2

[4] = 3 nM [^3H]nicotine, nonspecific binding with 10 μM cytisine, rat brain membranes, read-out: Inhibition of [^3H]Nicotine binding Ki (μM; M ± SEM)
[5] = 3 nM [^3H]methyllycaconitine, nonspecific binding with 10 μM nicotine, rat brain membranes, read-out: Inhibition of [^3H]MLA Binding Ki (μM; M ± SEM)

T2 sequence (Q05941 23-502): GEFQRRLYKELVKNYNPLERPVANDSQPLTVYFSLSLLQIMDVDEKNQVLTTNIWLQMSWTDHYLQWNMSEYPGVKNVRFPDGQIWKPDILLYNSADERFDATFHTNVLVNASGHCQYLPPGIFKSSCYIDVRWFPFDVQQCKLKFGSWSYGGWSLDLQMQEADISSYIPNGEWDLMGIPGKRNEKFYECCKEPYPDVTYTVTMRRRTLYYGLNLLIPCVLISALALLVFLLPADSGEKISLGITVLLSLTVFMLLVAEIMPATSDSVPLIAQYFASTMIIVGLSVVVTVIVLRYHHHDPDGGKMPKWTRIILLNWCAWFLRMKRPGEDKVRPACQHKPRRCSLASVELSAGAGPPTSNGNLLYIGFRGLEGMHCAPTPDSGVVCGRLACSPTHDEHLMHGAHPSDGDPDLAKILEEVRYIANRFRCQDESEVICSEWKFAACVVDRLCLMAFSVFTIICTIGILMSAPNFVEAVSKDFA
T1 sequence (P09483 31-630): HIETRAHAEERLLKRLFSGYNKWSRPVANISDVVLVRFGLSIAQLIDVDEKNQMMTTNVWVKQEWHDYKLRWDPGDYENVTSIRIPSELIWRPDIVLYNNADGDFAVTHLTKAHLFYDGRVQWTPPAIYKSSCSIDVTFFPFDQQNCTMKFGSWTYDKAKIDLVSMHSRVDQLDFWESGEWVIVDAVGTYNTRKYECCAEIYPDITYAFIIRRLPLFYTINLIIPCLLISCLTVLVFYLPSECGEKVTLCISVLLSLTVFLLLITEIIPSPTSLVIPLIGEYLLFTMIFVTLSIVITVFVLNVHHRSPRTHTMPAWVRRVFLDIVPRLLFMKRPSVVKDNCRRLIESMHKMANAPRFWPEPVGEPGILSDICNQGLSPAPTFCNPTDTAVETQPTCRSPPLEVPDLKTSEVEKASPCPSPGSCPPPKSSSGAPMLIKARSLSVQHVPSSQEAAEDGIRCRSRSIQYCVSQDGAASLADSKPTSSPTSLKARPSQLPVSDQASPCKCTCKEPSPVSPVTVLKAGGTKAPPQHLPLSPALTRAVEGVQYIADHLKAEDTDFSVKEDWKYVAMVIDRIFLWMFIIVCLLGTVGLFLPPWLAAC
T1 sequence (P12390 25-500): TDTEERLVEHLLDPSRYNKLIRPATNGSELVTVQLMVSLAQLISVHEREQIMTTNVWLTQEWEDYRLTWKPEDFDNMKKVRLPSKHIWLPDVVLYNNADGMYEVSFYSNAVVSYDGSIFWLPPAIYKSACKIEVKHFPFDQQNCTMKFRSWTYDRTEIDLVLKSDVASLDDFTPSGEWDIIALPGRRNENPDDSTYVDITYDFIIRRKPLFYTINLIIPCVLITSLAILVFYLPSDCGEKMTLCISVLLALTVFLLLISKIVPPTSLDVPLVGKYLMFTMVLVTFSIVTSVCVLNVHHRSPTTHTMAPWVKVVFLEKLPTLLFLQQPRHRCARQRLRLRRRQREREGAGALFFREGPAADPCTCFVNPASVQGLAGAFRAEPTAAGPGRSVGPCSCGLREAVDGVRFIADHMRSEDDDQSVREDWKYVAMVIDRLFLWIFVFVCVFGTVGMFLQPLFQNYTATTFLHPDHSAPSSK

C[n+]1cccc(CCCc2ccc[n+](C)c2)c1 [GZ-527A]
Ki [1, 4]: 8.2 ± 1.78 µM
inhibition at 0.1 µM [2]: 32%
Ki [3, 5]: > 100 µM

C[n+]1ccc(CCCc2cc[n+](C)cc2)cc1 [GZ-527B]
Ki [1]: 7.88 ± 1.68 µM
inhibition at 0.1 µM [2]: 67%
concentration dependent inhibition of the effect of nicotine to evoke [^3H]dopamine release (FIG. 1) ([2]; full concentration response, rat striatal slices): concentration dependent inhibition
Ki [3]: > 100 µM

C[n+]1ccccc1CCCc1cccc[n+]1C [GZ-528A]
Ki [1]: 8.17 ± 0.17 µM
inhibition at 0.1 µM [2]: 49%
Ki [3]: > 100 µM

Cc1cc(CCCc2cc(C)c[n+](C)c2)c[n+](C)c1 [GZ-528B]
Ki [1, 4]: > 100 µM
inhibition at 0.1 µM [2]: 30%
Ki [3, 5]: > 100 µM

Cc1ccc[n+](CCCc2ccc[n+](C)c2)c1 [GZ-529A]
Ki [1, 4]: > 100 µM
inhibition at 0.1 µM [2]: 43%
Ki [3, 5]: > 100 µM

Cc1cc(C)c[n+](CCCc2ccc[n+](C)c2)c1 [GZ-529B]
Ki [1]: > 100 µM
inhibition at 0.1 µM [2]: 25%
Ki [3]: > 100 µM

CN1CCC[C@@H]1c1ccc[n+](CCCc2ccc[n+](C)c2)c1 [GZ-530A]
Ki [1]: 6.62 ± 1.14 µM
inhibition at 0.1 µM [2]: 43%
Ki [3]: > 100 µM

C[n+]1cccc(CCC[n+]2ccccc2)c1 [GZ-530B]
Ki [1]: 23.4 ± 3.94 µM
inhibition at 0.1 µM [2]: 9%
Ki [3]: > 100 µM
